≈ marks a conversion by molar mass, not a printed value.
Legend:
[1] = target: T1, Putative protoporphyrinogen IX oxidase (Cucumis sativus) (UniProt C6L817); experiment: Inhibition of protoporphyrin oxidase in Cucumis sativus (cucumber) cotyledon disc assessed as increase in extraplastidic protoporphyrin 9 accumulation at 10 uM incubated in dim light for 2 hr by HPLC analysis relative to control
T1 sequence (whole entry): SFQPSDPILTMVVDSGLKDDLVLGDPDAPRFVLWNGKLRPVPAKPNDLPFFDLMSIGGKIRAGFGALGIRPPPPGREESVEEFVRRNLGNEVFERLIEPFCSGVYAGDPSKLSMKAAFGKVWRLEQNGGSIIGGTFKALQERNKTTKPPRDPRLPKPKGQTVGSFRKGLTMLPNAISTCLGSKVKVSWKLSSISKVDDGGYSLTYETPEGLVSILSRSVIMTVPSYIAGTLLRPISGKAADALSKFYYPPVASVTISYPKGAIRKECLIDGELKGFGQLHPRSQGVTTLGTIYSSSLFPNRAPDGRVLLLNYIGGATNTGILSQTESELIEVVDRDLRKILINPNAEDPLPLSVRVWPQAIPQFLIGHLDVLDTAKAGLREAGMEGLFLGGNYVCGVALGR

[2] = target: T1, Putative protoporphyrinogen IX oxidase (Cucumis sativus); experiment: Inhibition of protoporphyrin oxidase in Cucumis sativus (cucumber) cotyledon disc assessed as increase in extraplastidic protoporphyrin 9 accumulation at 100 uM incubated in dim light for 2 hr by HPLC analysis relative to control
[3] = Aqueous solubility of the compound; format: physicochemical; conditions: water
[4] = Solubility of the compound in organis solvent; format: physicochemical

SMILES | fold change (FC) [1] | fold change (FC) [2] | solubility [3] [µg/mL] | solubility [4] [µg/mL]
COC(=O)c1cc(Oc2ccc(C(F)(F)F)cc2Cl)ccc1[N+](=O)[O-] | 369 | 390 |  | 
CC(C)Oc1cc(-n2nc(C(C)(C)C)oc2=O)c(Cl)cc1Cl [OXADIAZON] |  |  | 0.7 (≈ 2.03 µM) | > 250000
C#CCOc1cc(-n2nc(C(C)(C)C)oc2=O)c(Cl)cc1Cl [OXADIARGYL] |  |  | 0.37 (≈ 1.08 µM) | > 250000

— ChEMBL document CHEMBL3046079, “Synthesis, herbicidal activity, and mode of action of IR 5790” (J Agric Food Chem, 2001)
